In patent US20020091262A1, “Substituted aryl or heteroarylamides having retinoid-like biological activity” (Allergan, priority 1995, published 2002):

These compounds were tested against T1, RARα (Homo sapiens, UniProt P10276) (assay: Ligand binding assay, RARα). Conditions: receptor expressed in Baculovirus; [3H] all-trans retinoic acid; Cheng-Prussof from IC50.
T1 construct: made in house; used as extract protein
T1 sequence (P10276 1-462): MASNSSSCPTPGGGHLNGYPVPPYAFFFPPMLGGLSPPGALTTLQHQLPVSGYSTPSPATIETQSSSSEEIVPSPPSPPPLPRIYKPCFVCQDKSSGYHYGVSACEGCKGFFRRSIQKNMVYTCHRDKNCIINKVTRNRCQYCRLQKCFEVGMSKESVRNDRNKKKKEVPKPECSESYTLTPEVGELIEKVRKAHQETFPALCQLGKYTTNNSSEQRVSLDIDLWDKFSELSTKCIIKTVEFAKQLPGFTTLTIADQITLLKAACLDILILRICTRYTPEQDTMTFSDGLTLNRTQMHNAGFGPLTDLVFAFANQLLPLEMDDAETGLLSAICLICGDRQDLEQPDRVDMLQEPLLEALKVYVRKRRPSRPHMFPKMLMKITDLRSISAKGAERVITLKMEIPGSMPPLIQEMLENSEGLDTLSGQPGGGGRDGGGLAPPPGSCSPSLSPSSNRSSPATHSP
Description: (§1) A holoreceptor transactivation assay and a ligand binding assay which measure the ability of the compounds of the invention to bind to the several retinoid receptor subtypes, respectively, are described in published PCT Application No. WO W093/11755 (particularly on pages 30-33 and 37-41) published on Jun. 24, 1993, the specification of which is also incorporated herein by reference. A description of the ligand binding assay is also provided below.
(§2) All binding assays were performed in a similar fashion. All six receptor types were derived from the expressed receptor type (RAR α, β, Γ and RXR α, β, Γ) expressed in Baculovirus. Stock solutions of all compounds were prepared as 10 mM ethanol solutions and serial dilutions carried out into 1:1 DMSO; ethanol. Assay buffers consisted of the following for all six receptor assays: 8% glycerol, 120 mM KCl, 8 mM Tris, 5 mM CHAPS 4 mM DTT and 0.24 mM PMSF, pH-7.4@room temperature.
(§3) All receptor biding assays were performed in the same manner. The final assay volume was 250 μl and contained from 10-40 μg of extract protein depending on receptor being assayed along with 5 nM of [^3H] all-trans retinoic acid or 10 nM [^3H] 9-cis retinoic acid and varying concentrations of competing ligand at concentrations that ranged from 0-10^−5 M. The assays were formatted for a 96 well minitube system. Incubations were carried out at 4° C. until equilibrium was achieved. Non-specific binding was defined as that binding remaining in the presence of 1000 nM of the appropriate unlabeled retinoic acid isomer. At the end of the incubation period, 50 μl of 6.25% hydroxyapitite was added in the appropriate wash buffer. The wash buffer consisted of 100 mM KCl, 10 mM Tris and either 5 mM CHAPS (RXR α, β, Γ) or 0.5% Triton X-100 (RAR α, β, Γ). The mixture was vortexed and incubated for 10 minutes at 4° C., centrifuged and the supernatant removed. The hydroxyapitite was washed three more times with the appropriate wash buffer. The receptor-ligand complex was adsorbed by the hydroxyapitite. The amount of receptor-ligand complex was determined by liquid scintillation counting of hydroxyapitite pellet.
(§4) After correcting for non-specific binding, IC50 values were determined. […] The IC50 value was determined graphically from a loglogit plot of the data. The […] were determined by application of the Cheng-Prussof equation to the IC50 values, the labeled ligand concentration and the Kd of the labeled ligand.
(§5) The results of ligand binding assay are expressed in Kd numbers. (See Chena et al. Biochemical Pharmacology Vol. 22 pp 3099-3108, expressly incorporated herein by reference.)
Compound CC(C)(C)c1cc(C(=O)Nc2ccc(C(=O)O)cc2)cc(C(C)(C)C)n1 [Compound 4] has a Kd of 0.019 µM.
In the case of CC(C)(C)c1cc(C(=O)Nc2ccc(C(=O)O)c(F)c2)c(O)c(C(C)(C)C)c1 [Compound 8], the Kd is reported as 0.077 µM.
With CC(C)(C)c1cc(C(=O)Nc2cc(F)c(C(=O)O)c(F)c2)cc(C(C)(C)C)n1 [Compound 10] the Kd was 0.062 µM.

These compounds were tested against T2, RARβ (Homo sapiens, UniProt P10826) (assay: Ligand binding assay, RARβ). Conditions: receptor expressed in Baculovirus; Cheng-Prussof from IC50.
T2 construct: made in house; used as extract protein
T2 sequence (P10826 1-455): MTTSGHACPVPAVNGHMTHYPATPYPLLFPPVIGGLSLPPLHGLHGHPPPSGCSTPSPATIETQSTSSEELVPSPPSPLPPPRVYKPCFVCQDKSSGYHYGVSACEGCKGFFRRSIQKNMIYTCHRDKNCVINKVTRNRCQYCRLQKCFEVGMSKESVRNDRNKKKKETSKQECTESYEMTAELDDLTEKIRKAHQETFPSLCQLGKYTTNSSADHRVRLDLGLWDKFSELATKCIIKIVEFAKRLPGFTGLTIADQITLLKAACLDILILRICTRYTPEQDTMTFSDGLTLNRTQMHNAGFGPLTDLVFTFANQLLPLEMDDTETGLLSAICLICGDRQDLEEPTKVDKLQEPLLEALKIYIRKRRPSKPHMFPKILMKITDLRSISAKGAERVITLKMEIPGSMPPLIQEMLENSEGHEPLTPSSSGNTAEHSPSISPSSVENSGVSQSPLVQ
Description: as §1, §2
as §3, with “The wash buffer consisted of 100 mM KCl, 10 mM Tris and either 5 mM CHAPS (RXR α, β, Γ) or 0.5% Triton X-100 (RAR α, β, Γ). The mixture was vortexed and incubated for 10 minutes at 4° C., centrifuged and the supernatant removed. The hydroxyapitite was washed three more times with the appropriate wash buffer. The receptor-ligand complex was adsorbed by the hydroxyapitite.” left out
as §4, with “ligand. […]” for “ligand.”
In the case of CC(C)(C)c1cc(C(=O)Nc2ccc(C(=O)O)cc2)cc(C(C)(C)C)n1 [Compound 4], the Kd is reported as greater than 1 µM.
Work on CC(C)(C)c1cc(C(=O)Nc2ccc(C(=O)O)c(F)c2)c(O)c(C(C)(C)C)c1 [Compound 8] yielded a Kd greater than 1 µM.

These compounds were tested against T3, RARΓ (Homo sapiens, UniProt P13631) (assay: Ligand binding assay, RARΓ). Conditions: receptor expressed in Baculovirus; Cheng-Prussof from IC50.
T3 construct: made in house; used as extract protein
T3 sequence (P13631 1-454): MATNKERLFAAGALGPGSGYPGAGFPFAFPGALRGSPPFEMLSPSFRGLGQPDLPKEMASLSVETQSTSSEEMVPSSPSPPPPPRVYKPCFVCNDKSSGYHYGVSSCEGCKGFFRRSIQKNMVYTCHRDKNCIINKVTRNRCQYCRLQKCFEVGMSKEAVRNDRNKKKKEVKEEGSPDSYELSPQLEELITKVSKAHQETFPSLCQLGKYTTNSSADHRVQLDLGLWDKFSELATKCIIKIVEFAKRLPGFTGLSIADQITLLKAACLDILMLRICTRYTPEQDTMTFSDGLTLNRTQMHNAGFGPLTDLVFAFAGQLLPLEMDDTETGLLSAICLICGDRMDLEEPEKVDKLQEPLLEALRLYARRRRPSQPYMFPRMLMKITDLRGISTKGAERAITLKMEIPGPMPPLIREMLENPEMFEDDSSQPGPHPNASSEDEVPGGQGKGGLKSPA
Description: as §1, §2
as §3, with “The wash buffer consisted of 100 mM KCl, 10 mM Tris and either 5 mM CHAPS (RXR α, β, Γ) or 0.5% Triton X-100 (RAR α, β, Γ). The mixture was vortexed and incubated for 10 minutes at 4° C., centrifuged and the supernatant removed. The hydroxyapitite was washed three more times with the appropriate wash buffer. The receptor-ligand complex was adsorbed by the hydroxyapitite.” left out
as §4, with “ligand. […]” for “ligand.”
For CC(C)(C)c1cc(C(=O)Nc2ccc(C(=O)O)cc2)cc(C(C)(C)C)n1 [Compound 4], the Kd was greater than 1 µM.
In the case of CC(C)(C)c1cc(C(=O)Nc2ccc(C(=O)O)c(F)c2)c(O)c(C(C)(C)C)c1 [Compound 8], the Kd is reported as greater than 1 µM.

What follows are compounds tested against T4, RXRα (Homo sapiens, UniProt P19793) (assay: Ligand binding assay, RXRα). Conditions: receptor expressed in Baculovirus; Cheng-Prussof from IC50.
T4 construct: made in house; used as extract protein
T4 sequence (P19793 1-462): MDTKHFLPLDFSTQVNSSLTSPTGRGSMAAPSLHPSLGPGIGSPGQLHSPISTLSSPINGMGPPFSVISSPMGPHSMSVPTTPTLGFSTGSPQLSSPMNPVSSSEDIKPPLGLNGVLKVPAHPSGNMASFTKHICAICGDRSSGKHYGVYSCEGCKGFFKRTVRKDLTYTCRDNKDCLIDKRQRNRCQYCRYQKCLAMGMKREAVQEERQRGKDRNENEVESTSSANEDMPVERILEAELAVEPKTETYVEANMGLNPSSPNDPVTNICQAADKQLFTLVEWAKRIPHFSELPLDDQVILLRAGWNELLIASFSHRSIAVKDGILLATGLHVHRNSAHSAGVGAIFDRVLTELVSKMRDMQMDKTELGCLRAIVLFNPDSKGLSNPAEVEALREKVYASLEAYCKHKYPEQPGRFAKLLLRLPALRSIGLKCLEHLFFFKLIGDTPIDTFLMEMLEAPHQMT
Description: as §1, §2, §3, §4, §5
Compound CC(C)(C)c1cc(C(=O)Nc2ccc(C(=O)O)cc2)cc(C(C)(C)C)n1 [Compound 4] has a Kd greater than 1 µM.
CC(C)(C)c1cc(C(=O)Nc2ccc(C(=O)O)c(F)c2)c(O)c(C(C)(C)C)c1 [Compound 8] gave a Kd greater than 1 µM.

The compounds below were run against T5, RXRβ (UniProt P28704) (assay: Ligand binding assay, RXRβ). Conditions: receptor expressed in Baculovirus; Cheng-Prussof from IC50.
T5 construct: All six receptor types were derived from the expressed receptor type (RAR α, β, Γ and RXR α, β, Γ) expressed in Baculovirus
T5 sequence (P28704 1-520): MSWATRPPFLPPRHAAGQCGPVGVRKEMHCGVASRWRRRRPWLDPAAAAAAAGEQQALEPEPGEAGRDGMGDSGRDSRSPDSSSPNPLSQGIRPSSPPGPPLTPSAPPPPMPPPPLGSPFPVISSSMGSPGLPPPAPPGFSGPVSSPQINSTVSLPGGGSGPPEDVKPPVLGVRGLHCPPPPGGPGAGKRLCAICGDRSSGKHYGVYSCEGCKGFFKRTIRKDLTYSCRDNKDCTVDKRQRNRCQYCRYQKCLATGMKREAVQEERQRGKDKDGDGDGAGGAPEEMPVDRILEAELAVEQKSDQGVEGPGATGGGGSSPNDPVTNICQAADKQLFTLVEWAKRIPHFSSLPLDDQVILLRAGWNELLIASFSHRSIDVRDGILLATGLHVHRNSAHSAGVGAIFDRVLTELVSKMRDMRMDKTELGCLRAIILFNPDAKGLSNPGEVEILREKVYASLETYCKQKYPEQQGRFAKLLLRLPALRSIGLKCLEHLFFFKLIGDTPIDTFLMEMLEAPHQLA
Description: (§6) A description of the ligand binding assay is also provided below.
as §2
as §3, with “At the end of the incubation period, 50 μl of 6.25% hydroxyapitite was added in the appropriate wash buffer.” left out
as §4
(§7) The results of ligand binding assay are expressed in Kd numbers.
Work on CC(C)(C)c1cc(C(=O)Nc2ccc(C(=O)O)cc2)cc(C(C)(C)C)n1 [Compound 4] yielded a Kd greater than 1 µM.
CC(C)(C)c1cc(C(=O)Nc2ccc(C(=O)O)c(F)c2)c(O)c(C(C)(C)C)c1 [Compound 8] gave a Kd greater than 1 µM.
In the case of CC(C)(C)c1cc(C(=O)Nc2cc(F)c(C(=O)O)c(F)c2)cc(C(C)(C)C)n1 [Compound 10], the Kd is reported as greater than 1 µM.

The compounds below were run against T6, RXRΓ (UniProt P28705) (assay: Ligand binding assay, RXRΓ). Conditions: receptor expressed in Baculovirus; Cheng-Prussof from IC50.
T6 construct: All six receptor types were derived from the expressed receptor type (RAR α, β, Γ and RXR α, β, Γ) expressed in Baculovirus
T6 sequence (P28705 1-463): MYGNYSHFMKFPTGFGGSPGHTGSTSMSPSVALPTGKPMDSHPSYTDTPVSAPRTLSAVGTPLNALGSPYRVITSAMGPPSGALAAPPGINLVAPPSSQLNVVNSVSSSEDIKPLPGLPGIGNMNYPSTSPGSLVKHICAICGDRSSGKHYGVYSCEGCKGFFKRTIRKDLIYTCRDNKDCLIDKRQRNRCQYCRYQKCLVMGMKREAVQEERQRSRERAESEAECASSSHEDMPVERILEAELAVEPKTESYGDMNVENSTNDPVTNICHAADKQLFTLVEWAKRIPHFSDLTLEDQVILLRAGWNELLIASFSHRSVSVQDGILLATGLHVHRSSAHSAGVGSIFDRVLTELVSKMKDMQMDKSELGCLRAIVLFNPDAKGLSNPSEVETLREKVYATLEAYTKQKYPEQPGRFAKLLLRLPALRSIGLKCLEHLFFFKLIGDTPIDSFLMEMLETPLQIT
Description: as §6, §2
as §3, with “At the end of the incubation period, 50 μl of 6.25% hydroxyapitite was added in the appropriate wash buffer.” left out
as §4, §7
Compound CC(C)(C)c1cc(C(=O)Nc2ccc(C(=O)O)cc2)cc(C(C)(C)C)n1 [Compound 4] has a Kd greater than 1 µM.
Work on CC(C)(C)c1cc(C(=O)Nc2ccc(C(=O)O)c(F)c2)c(O)c(C(C)(C)C)c1 [Compound 8] yielded a Kd greater than 1 µM.
Work on CC(C)(C)c1cc(C(=O)Nc2cc(F)c(C(=O)O)c(F)c2)cc(C(C)(C)C)n1 [Compound 10] yielded a Kd greater than 1 µM.
